According to US7419969B2 (Bristol-Myers Squibb Company, priority 2004, dated 2008):

Legend:
HIV-integrase = target: T1, HIV-integrase (Human immunodeficiency virus type 1 group M subtype B, UniProt P04585); assay: in-vitro activity against HIV-integrase (HIV Integrase Inhibition, SPA bead assay); assay type: biochemical; settings: Table 1a; recombinant integrase, activity class
T1 construct: Recombinant integrase (0.26 ng) was incubated with the beads
Outline: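 Recombinant integrase (0.26 ng) pre-bound for 90 min at 37 °C to biotinylated substrate DNA on streptavidin SPA beads, then washed. Inhibitors added with 33P-labelled target DNA; reaction stopped with 10 mM EDTA. Scintillation CPM taken as integration signal.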

Row | Structure (SMILES) | IC50 (HIV-integrase) [nM] | melting point
1 | COP(=O)(OC)c1cc(F)ccc1CNC(=O)c1nc2n(c(=O)c1O)CCCOC21CCOCC1 [Example 117, Phosphonic acid, [5-fluoro-2-[[[(2,3,5,6,7′,8′-hexahydro-3′-hydroxy-4′-oxospiro[4H-pyran-4,10′(4′H) -[6H]pyrimido[2,1-c][1,4]oxazepin]-2′-yl)carbonyl]amino]methyl]phenyl]-, dimethyl ester] | 10 to 100 | 234 °C (dec.)
2 | CNC(=O)c1cc(F)ccc1CNC(=O)c1nc2n(c(=O)c1O)CCCOC21CCOCC1 [Example 115, Spiro[4H-pyran-4,10′(4′H)-[6H]pyrimido[2,1-c][1,4]oxazepine]-2′-carboxamide, N-[[4-fluoro-2-[(methylamino)carbonyl]phenyl]methyl]-2,3,5,6,7′,8′-hexahydro-3′-hydroxy-4′-oxo-] | 1 to 10 | 211 °C (dec.)
3 | O=C(NCc1ccc(F)cc1-n1ccnn1)c1nc2n(c(=O)c1O)CCCOC21CCOCC1 [Example 122, Spiro[4H-pyran-4,10′(4′H)-[6H]pyrimido[2,1-c][1,4]oxazepine]-2′-carboxamide, N-[[4-fluoro-2-(1H-1,2,3-triazol-1-yl)phenyl]methyl]-2,3,5,6,7′,8′-hexahydro-3′-hydroxy-4′-oxo-] | 1 to 10 | 239 °C (dec.)
